Read-outs that look alike come from different tables or passages of the source.
Tests used:
[1] = system: HIV-1; details: earlier reports (refs 5, 29); cited from earlier work
[2] = system: HIV-1; assay: Release of HIV-1 from transfected 293T cells, p24 in media; format: cell-based; details: 293T cells transfected with pR9-HIV-1Ba-L, read-out: EC50, inhibition of HIV-1 release
Method: Effect of Ilaprazole on release of HIV-1 in vitro. To establish the broad-spectrum potential of ilaprazole, we tested whether ilaprazole would inhibit the release of HIV-1 from 293T cells. To this end, cells were transfected with pR9-HIV-1Ba-L plasmid and release of virus into the media fraction was detected by monitoring the capsid (CA) protein (p24) via enzyme linked immunosorbent assay analysis. The drug was tested at concentrations between 0 and 40 μM and the effect of the drug on release of virus assessed (Table 4, shown in FIG. 8, column 2). Ilaprazole was effective at inhibiting the release of HIV-1 from cells with a calculated EC50 of 1 μM or less as described in Materials and Methods.
HIV-1 transfection of 293T cells. 293T cells (American Type Culture Collection) were grown in a 24-well Clear Flat Bottom TC-treated Multiwell Cell Culture Plate using Dulbecco's modified Eagle's medium (Cellgro) containing fetal bovine serum (10%), 100 U/ml penicillin, 100 μg/ml streptomycin, and 292 μg/ml 1-glutamine (Cellgro). […] Virus released from cells was quantified by media-associated p24 determined using fluorescently tagged CA targeting antibody (PerkinElmer) and equivalent amounts of p24 as standards.
Drug potency and cell toxicity. EC50 calculations were determined by using AAT Bioquest's EC50 calculator. […]

[3] = system: 293T cells; assay: 293T cell toxicity; format: cell-based; details: at drug concentrations that inhibited release of HIV-1
Method: Drug potency and cell toxicity. EC50 calculations were determined by using AAT Bioquest's EC50 calculator. Cell toxicity at different concentrations of drugs as indicated was determine using the Cell Proliferation Reagent WST-1 (Roche Diagnostics) or cellular 96® Aqueous One Reagent viability reagent according to manufacturer's instructions. For 293T cells, the concentration of DMSO was 0.2% or less and assays were carried out with DMEM with 10% serum. Cell toxicity experiments were repeated twice.

Row | Compound | Inhibition of release of infectious HIV-1 from 293T cells [1] | EC50 [2] | EC50 ([2]; Human immunodeficiency virus 1, HEK-293T) | Toxicity to 293T cells [3]
1 | COc1ccc2[nH]c([S+]([O-])Cc3ncc(C)c(OC)c3C)nc2n1 (stereo not shown) [Tenatoprazole] | quantitatively inhibit the release |  |  | 
2 | COc1ccnc(C[S+]([O-])c2nc3ccc(-n4cccc4)cc3[nH]2)c1C (stereo not shown) [Ilaprazole, 2-[(4-methoxy-3-methylpyridin-2-yl)methylsulfinyl]-6-pyrrol-1-yl-1H-benzimidazole] |  | ≤ 1000 nM | 800 to 1200 nM | did not detect toxicity
